# Paper PMC6381024, “Probing Anti-inflammatory Properties Independent of NF-κB Through Conformational Constraint of Peptide-Based Interleukin-1 Receptor Biased Ligands” (Frontiers in Chemistry, 2019)
# Assays:
# NF-κB = NF-κB QUANTI-Blue assay (secreted alkaline phosphatase reporter) in HEK-Blue IL-33/IL-1β cells; assay type: cell-based; set-up: key to Nf-κB (heatmap grade of inhibition): 0: No effect; No effect 01234 Maximum inhibition/efficacy; No effect 01234 Maximum inhibition/efficacy; No effect 01234 Maximum inhibition/efficacy; 4: Maximum inhibition/efficacy; conditions: for Nf-κB (heatmap grade of inhibition): HEK-Blue cells, peptide 10^-6 M or Kineret 1.0 mg/mL 30 min, then IL-1β 100 ng/mL 4 h, QUANTI-Blue
# Method: HEK-Blue IL-33/IL-1β cells (InvivoGen) were pretreated with peptides 1, 5, or 6 (10^−6M) or Kineret (1.0 mg/mL) for 30 min, followed by treatment with a constant concentration of IL-1β (100 ng/mL), and then incubated at 37°C for 4 h. Levels of secreted alkaline phosphatase in cell culture supernatant were determined using the QUANTI-Blue assay, according to the manufacturer's instructions (InvivoGen). Alkaline phosphatase activity was assessed by measuring the optical density (OD) at 620–655 nm with a micro plate reader (EnVision Multilabel reader; PerkinElmer, Waltham, MA). Data are representative of 3 experiments (each with n = 4 per treatment group).
# Figure 6 The effects of peptides 1, 5, and 6 on IL-1-induced NF-κB signaling. NF-κB activation was quantified on HEK-blue cells using the QUANTI-blue assay, which spectroscopically detects secreted alkaline phosphatase, a reporter product from the transcription of the NF-κB gene. HEK-blue cells were pre-incubated with peptides 1, 5, and 6 or vehicle, then stimulated with IL-1β for 4 h. Data shown represents the average of 3 experiments, each with n = 4 per treatment group. ^****p < 0.0001 compared to group treated only with IL-1β. Treatment groups that are not labeled with asterisks are statistically non-significant compared to group treated only with IL-1β.
# Sprague Dawley rat pups = assay: Oxygen-induced retinopathy (OIR), retinal vaso-obliteration in rat pups; assay type: in vivo; set-up: key to In vivo OIR (heatmap grade of efficacy): 0: No effect; No effect 01234 Maximum inhibition/efficacy; No effect 01234 Maximum inhibition/efficacy; No effect 01234 Maximum inhibition/efficacy; 4: Maximum inhibition/efficacy; conditions: for In vivo OIR (heatmap grade of efficacy): Sprague Dawley rat pups, 80% O2 P5-P10, Kineret 3 mg/kg/day (legend: 15 mg/kg/day), twice-daily i.p.; for In vivo OIR (heatmap grade of efficacy) / Extent of vaso-obliteration (area as percentage of total retinal area) after treatment: peptides 2 mg/kg/day; for Extent of vaso-obliteration (area as percentage of total retinal area) after treatment / Efficacy against vaso-obliteration in the OIR model: rat pups, 80% oxygen days 5 to 10; for Extent of vaso-obliteration (area as percentage of total retinal area) after treatment: Kineret 3 mg/kg/day (legend: 15 mg/kg/day) i.p., untreated ~35%; for Efficacy against vaso-obliteration in the OIR model: 2 mg/kg/day i.p.
# Excerpt: On P5, litters were transferred to a controlled hyperoxic environment (Biospherix OxyCycler A84XOV) and maintained at 80 ± 1% O2, which is used to induce vaso-obliteration of the retinal vasculature. At this timepoint, the vasculature is immature and particularly susceptible to […] insults resulting in vaso-obliteration, a defining characteristic of the early stage of retinopathies in premature infants (Garner and Ashton, [1971]). Control litters were not exposed to hyperoxia and were kept in standard conditions with room air (21% O2). To control for the effects of hyperoxia on the lactation of the dams, dams of hyperoxic litters were switched with dams of control litters on P8.
# In litters exposed to hyperoxia, pups were randomized to receive phosphate-buffered saline (PBS) vehicle, 2 mg/kg/day of peptides 1, 5, or 6 or 3 mg/kg/day of Kineret from P5 to P10. These doses were determined from our previous study (Rivera et al., [2013]) and administered in twice-daily intra-peritoneal injections titrated to 20 μL per injection with 28-gauge insulin syringes. A total of 6–8 pups were used for each treatment group.
# On P10, pups were euthanized by decapitation under 2% isoflurane anesthesia. Eyes were enucleated and fixed in 4% paraformaldehyde for 1 h at room temperature before washing twice with PBS and storage at 4°C in PBS until further processing.
# Under a dissecting microscope, the cornea and lens were gently removed from the eyes and remnants of the hyaloid vasculature were removed from the retinas using surgical scissors and tweezers. The retinas were gently removed from the underlying sclera/choroid complex.
# Retinas were treated at room temperature for 1 h with a blocking solution consisting of 1% bovine serum albumin (BSA), 1% normal goat serum, 0.1% Triton X-100 and 0.05% Tween-20 in PBS. The retinas were then double-labeled overnight at 4°C with gentle shaking in an antibody solution consisting of 1 mM CaCl2, 1% Triton X-100, 1% TRITC-conjugated lectin cell endothelial marker from Bandeiraea simplicifolia (Sigma-Aldrich, St Louis, MO) and a 1:500 dilution of rabbit anti-ionized calcium-binding adapter molecule (Iba)-1 antibody (Wako Chemicals USA) in PBS. The retinas were then washed thrice with PBS and incubated with a secondary antibody solution consisting of 1% BSA, 0.1% Triton X-100, 0.05% Tween-20 and 1:500 Alexa-594-conjugated donkey anti-rabbit IgG (ThermoFisher Scientific, Rockford, IL) in PBS for 2 h at room temperature. Retinas were washed thrice with PBS and then flat-mounted onto glass slides with coverslips and Fluoro-Gel mounting medium (Electron Microscopy Sciences, Hatfield, PA).
# For assessment of vaso-obliteration, retinas were imaged using an epifluorescence microscope at 10X magnification (Zeiss AxioImager Z2) and version 4.8 of the AxioVision software. Images were captured and stitched together using the software's MosaiX feature. Iba-1 staining was assessed with the same microscope at 20X magnification, and a total of 4 fields per retina were imaged halfway between the optic nerve and the edge of the retina.
# The FIJI software was used to the quantify the area of vaso-obliteration in each retina, expressed as a percentage of the area of the whole retina. The number of Iba-1-positive cells was counted using the cell counter plug-in in FIJI, and the average of cell counts in 4 fields per retina was calculated.
# Figure 10 The preventive effects of peptides 1, 5, and 6 against vaso-obliteration in an OIR model. Five-days old Sprague Dawley pups and their mothers were kept in 80% oxygen until the 10 day of life, receiving twice-daily intraperitoneal injections of peptides 1, 5, and 6 (2 mg/kg/day), Kineret (15 mg/kg/day) or PBS vehicle (each injection was titrated to a volume of 20 μL). (A) Representative retinal flatmounts stained with FITC-conjugated Bandeiraea simplicifolia lectin, taken at 10X magnification and stitched with MosaiX in Axiovision 4.8. […]
substance,measurement,setting,value
"H-D-Arg-D-Tyr-(3S,4R)-Hgl-D-Val-D-Glu-D-Leu-D-Ala-NH2 [[(3S,4R)-Hgl^3]-1]",Nf-κB (heatmap grade of inhibition),NF-κB,0
same,In vivo OIR (heatmap grade of efficacy),Sprague Dawley rat pups,4
same,Extent of vaso-obliteration (area as percentage of total retinal area) after treatment,Sprague Dawley rat pups,15–25%
Kineret: FDA-approved recombinant IL-1 receptor antagonist,Nf-κB (heatmap grade of inhibition),NF-κB,4
same,Inhibition of IL-1-induced NF-κB signaling,"NF-κB; HEK-blue cells, peptide 10^-6 M or Kineret 1.0 mg/mL, IL-1β 4 h, QUANTI-blue",inhibited NF-κB
same,In vivo OIR (heatmap grade of efficacy),Sprague Dawley rat pups,3
same,Extent of vaso-obliteration (area as percentage of total retinal area) after treatment,Sprague Dawley rat pups,15–20%
"H-D-Arg-D-Tyr-(3R,4R)-Hgl-D-Val-D-Glu-D-Leu-D-Ala-NH2 [[(3R,4R)-Hgl^3]-1]",Nf-κB (heatmap grade of inhibition),NF-κB,0
"H-D-Arg-D-Tyr-(3R,4S)-Hgl-(S)-Val-D-Glu-D-Leu-D-Ala-NH2 [[(3R,4S)-Hgl^3-(S)-Val^4]-1]",Nf-κB (heatmap grade of inhibition),NF-κB,0
"H-D-Arg-D-Tyr-(3R,4R)-Hgl-(S)-Val-D-Glu-D-Leu-D-Ala-NH2 [[(3R,4R)-Hgl^3-(S)-Val^4]-1]",Nf-κB (heatmap grade of inhibition),NF-κB,0
H-D-Arg-D-Tyr-(S)-Agl-(S)-Val-D-Glu-D-Leu-D-Ala-NH2 [[(3S)-Agl^3-(S)-Val^4]-1],Nf-κB (heatmap grade of inhibition),NF-κB,0
H-D-Arg-D-Tyr-D-Thr-D-Val-D-Glu-D-Leu-D-Ala-NH2 [Peptide 1],Nf-κB (heatmap grade of inhibition),NF-κB,0
same,In vivo OIR (heatmap grade of efficacy),Sprague Dawley rat pups,4
same,Extent of vaso-obliteration (area as percentage of total retinal area) after treatment,Sprague Dawley rat pups,15–20%
H-D-Arg-D-Tyr-(S)-Agl-D-Val-D-Glu-D-Leu-D-Ala-NH2 [[(3S)-Agl^3]-1],Nf-κB (heatmap grade of inhibition),NF-κB,0
same,In vivo OIR (heatmap grade of efficacy),Sprague Dawley rat pups,1
same,Efficacy against vaso-obliteration in the OIR model,Sprague Dawley rat pups,inactivity
H-D-Arg-D-Tyr-(R)-Agl-(S)-Val-D-Glu-D-Leu-D-Ala-NH2 [[(3R)-Agl^3-(S)-Val^4]-1],Nf-κB (heatmap grade of inhibition),NF-κB,0
H-D-Arg-D-Tyr-(R)-Agl-D-Val-D-Glu-D-Leu-D-Ala-NH2 [[(3R)-Agl^3]-1],Nf-κB (heatmap grade of inhibition),NF-κB,0
same,In vivo OIR (heatmap grade of efficacy),Sprague Dawley rat pups,0
same,Efficacy against vaso-obliteration in the OIR model,Sprague Dawley rat pups,inactivity
"H-D-Arg-D-Tyr-(3R,4S)-Hgl-D-Val-D-Glu-D-Leu-D-Ala-NH2 [[(3R,4S)-Hgl^3]-1]",Nf-κB (heatmap grade of inhibition),NF-κB,0
same,In vivo OIR (heatmap grade of efficacy),Sprague Dawley rat pups,4
same,Extent of vaso-obliteration (area as percentage of total retinal area) after treatment,Sprague Dawley rat pups,15–25%
